Experimental data as given in ChEMBL document CHEMBL1201862, “PubChem BioAssay data set” (2004).
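The compound was tested at five concentrations on cells cultured in 96-well plates, with a 48-hour exposure period. GI50: concentration for 50% inhibition of growth.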 Activity calls are given as the source filed them. No stated cut-off is given here; in the data, active = GI50 up to about 1.1 µM and inactive = higher.

What was measured:
Assay in all cases: NCI-60 cell line screen, 48 h
U-251 = tested on: U-251
SK-OV-3 = tested on: SK-OV-3
SF-295 = tested on: SF-295
EKVX = tested on: EKVX
SK-MEL-28 = tested on: SK-MEL-28
NCI-H23 = tested on: NCI-H23
LOX IMVI = tested on: LOX IMVI
SK-MEL-2 = tested on: SK-MEL-2
CCRF-CEM = tested on: CCRF-CEM
Malme-3M = tested on: Malme-3M
TK-10 = tested on: TK-10
OVCAR-5 = tested on: OVCAR-5
OVCAR-3 = tested on: OVCAR-3
HOP-62 = tested on: HOP-62
NCI-H226 = tested on: NCI-H226
T47D = tested on: T47D
ACHN = tested on: ACHN
BT-549 = tested on: BT-549
M14 = tested on: M14
SNB-75 = tested on: SNB-75

Row | SMILES | GI50 (U-251) | GI50 (SK-OV-3) | GI50 (SF-295) | GI50 (EKVX) | GI50 (SK-MEL-28) | GI50 (NCI-H23) | GI50 (LOX IMVI) | GI50 (SK-MEL-2) | GI50 (CCRF-CEM) | GI50 (Malme-3M) | GI50 (TK-10) | GI50 (OVCAR-5) | GI50 (OVCAR-3) | GI50 (HOP-62) | GI50 (NCI-H226) | GI50 (T47D) | GI50 (ACHN) | GI50 (BT-549) | GI50 (M14) | GI50 (SNB-75)
1 | CCCC(=O)[O-].[Na+] [SODIUM BUTYRATE] | 4790 µM (inactive) | 3030 µM (inactive) | 7660 µM (inactive) | 18700 µM (inactive) | 4170 µM (inactive) | 3970 µM (inactive) | 3520 µM (inactive) | 4720 µM (inactive) | 2050 µM (inactive) | 543 µM (inactive) | 719 µM (inactive) | 7980 µM (inactive) | 9910 µM (inactive) | 7210 µM (inactive) | 6250 µM (inactive) | 2420 µM (inactive) | 4470 µM (inactive) | 8040 µM (inactive) | 5460 µM (inactive) | 9680 µM (inactive)
2 | [O-][s+]1c2c(Cc3ccccc3)c(Cc3ccccc3)c1CCc1cccc(c1)CC2 | 13.9 µM (inactive) | 10.7 µM (inactive) | 13.2 µM (inactive) | 13.2 µM (inactive) | 20.7 µM (inactive) | 12.7 µM (inactive) | 14 µM (inactive) | 17 µM (inactive) | 19.6 µM (inactive) | 17.1 µM (inactive) | 19.1 µM (inactive) | 15.3 µM (inactive) | 11.1 µM (inactive) | – | 19.1 µM (inactive) | 6.68 µM (inactive) | 16.7 µM (inactive) | 13.8 µM (inactive) | 14.7 µM (inactive) | 13 µM (inactive)
3 | O=C(Cc1ccc(Cl)cc1)Nc1ccc2oc(-c3ccccc3)nc2c1 | 56.1 µM (inactive) | 77.8 µM (inactive) | > 100 µM (inactive) | 30.8 µM (inactive) | > 100 µM (inactive) | > 100 µM (inactive) | > 100 µM (inactive) | 89.1 µM (inactive) | > 100 µM (inactive) | > 100 µM (inactive) | > 100 µM (inactive) | > 100 µM (inactive) | > 100 µM (inactive) | 35.6 µM (inactive) | 27.6 µM (inactive) | > 100 µM (inactive) | > 100 µM (inactive) | > 100 µM (inactive) | > 100 µM (inactive) | 24.4 µM (inactive)
4 | N=C(N)SC1c2ccccc2-c2cc([N+](=O)[O-])ccc21 (configuration not stated) | 2.75 µM (inactive) | 4.44 µM (inactive) | 4.01 µM (inactive) | 10.4 µM (inactive) | 2.41 µM (inactive) | 4.84 µM (inactive) | 5.57 µM (inactive) | 3.51 µM (inactive) | 3.3 µM (inactive) | 5.19 µM (inactive) | 8.24 µM (inactive) | 9.95 µM (inactive) | 2.69 µM (inactive) | 6.56 µM (inactive) | 7.53 µM (inactive) | 2.95 µM (inactive) | 6.53 µM (inactive) | 6.05 µM (inactive) | 5.15 µM (inactive) | 2.02 µM (inactive)
5 | Nc1nc2c(c(-c3cccc(Cl)c3)n1)COC/C2=C\c1cccc(Cl)c1 | > 100 µM (inactive) | > 100 µM (inactive) | > 100 µM (inactive) | > 100 µM (inactive) | > 100 µM (inactive) | > 100 µM (inactive) | > 100 µM (inactive) | > 100 µM (inactive) | > 100 µM (inactive) | 37.9 µM (inactive) | 41.8 µM (inactive) | > 100 µM (inactive) | > 100 µM (inactive) | > 100 µM (inactive) | > 100 µM (inactive) | 82.6 µM (inactive) | > 100 µM (inactive) | > 100 µM (inactive) | > 100 µM (inactive) | 22.9 µM (inactive)
6 | COc1ccc2nc3cccc([N+](=O)[O-])c3c(NCCN(C)C)c2c1 | 0.149 µM (active) | 0.255 µM (active) | 0.233 µM (active) | 0.186 µM (active) | 0.161 µM (active) | 0.136 µM (active) | 0.0325 µM (active) | 0.127 µM (active) | 0.16 µM (active) | 0.0877 µM (active) | 0.263 µM (active) | 0.173 µM (active) | 0.127 µM (active) | 0.119 µM (active) | 0.207 µM (active) | 0.146 µM (active) | 0.0585 µM (active) | 0.0369 µM (active) | 0.0927 µM (active) | 0.159 µM (active)
7 | Cn1/c(=N\S(=O)(=O)c2ccccc2)n(S(=O)(=O)c2ccccc2)c2ccccc21 | 34.7 µM (inactive) | > 100 µM (inactive) | 62.1 µM (inactive) | 63.5 µM (inactive) | > 100 µM (inactive) | 61 µM (inactive) | > 100 µM (inactive) | 34.4 µM (inactive) | 24.7 µM (inactive) | 47.6 µM (inactive) | > 100 µM (inactive) | > 100 µM (inactive) | 36.2 µM (inactive) | 38.8 µM (inactive) | 50.2 µM (inactive) | 40.6 µM (inactive) | 34.5 µM (inactive) | > 100 µM (inactive) | 53.7 µM (inactive) | 54.7 µM (inactive)
8 | CSc1ccc(C2C(Cl)C(=O)N2NC(=O)c2c(Cl)c(Cl)c(Cl)c(Cl)c2-c2nc3ccccc3[nH]2)cc1 (configuration not stated) | – | 26.6 µM (inactive) | 33.1 µM (inactive) | 16.5 µM (inactive) | 17.2 µM (inactive) | 15.6 µM (inactive) | 4.18 µM (inactive) | 31.6 µM (inactive) | 2.48 µM (inactive) | 19 µM (inactive) | – | 22.3 µM (inactive) | 21.8 µM (inactive) | 79.3 µM (inactive) | 16.1 µM (inactive) | 4.28 µM (inactive) | 24.2 µM (inactive) | 17.2 µM (inactive) | 20.5 µM (inactive) | 15.2 µM (inactive)
9 | O=[N+]([O-])/C=C/c1cc2ccccc2[nH]1 | 12.4 µM (inactive) | 16.9 µM (inactive) | 19.5 µM (inactive) | 29.2 µM (inactive) | 25.4 µM (inactive) | 13.1 µM (inactive) | 14.2 µM (inactive) | 19.3 µM (inactive) | 2.99 µM (inactive) | 27.5 µM (inactive) | 17.5 µM (inactive) | 19.5 µM (inactive) | 14.8 µM (inactive) | 16.5 µM (inactive) | 19.1 µM (inactive) | 16.2 µM (inactive) | 17 µM (inactive) | 15.6 µM (inactive) | 12.5 µM (inactive) | 15.2 µM (inactive)
10 | CCOC(=O)C(NCc1ccccc1)(NC(=O)c1ccccc1)C(F)(F)F (configuration not stated) | > 100 µM (inactive) | > 100 µM (inactive) | > 100 µM (inactive) | 82.4 µM (inactive) | > 100 µM (inactive) | > 100 µM (inactive) | 95.1 µM (inactive) | > 100 µM (inactive) | 24.2 µM (inactive) | > 100 µM (inactive) | > 100 µM (inactive) | > 100 µM (inactive) | 89.7 µM (inactive) | > 100 µM (inactive) | > 100 µM (inactive) | 38.5 µM (inactive) | > 100 µM (inactive) | > 100 µM (inactive) | > 100 µM (inactive) | 68.1 µM (inactive)
11 | COc1cccc(NC(=O)CC(=O)N2N=C(C)C(/N=N/c3ccc(S(=O)(=O)CCOS(=O)(=O)O)cc3)C2=O)c1 (configuration not stated) | 4.89 µM (inactive) | – | 15.3 µM (inactive) | 17.7 µM (inactive) | 4.09 µM (inactive) | 4.69 µM (inactive) | 1.5 µM (inactive) | 2.04 µM (inactive) | 2.62 µM (inactive) | 11.1 µM (inactive) | 5.75 µM (inactive) | 29.3 µM (inactive) | 4.21 µM (inactive) | 13 µM (inactive) | 4.66 µM (inactive) | 11.4 µM (inactive) | 3.99 µM (inactive) | 3.35 µM (inactive) | 5.83 µM (inactive) | 3.27 µM (inactive)
12 | Nc1nc(Cl)c(N)c(NCC2(CO)CC(CCCc3ccccc3)C2)n1 (configuration not stated) | 34.3 µM (inactive) | > 100 µM (inactive) | 14 µM (inactive) | 0.223 µM (active) | 47.1 µM (inactive) | – | 16.7 µM (inactive) | 0.137 µM (active) | 0.0451 µM (active) | 1.26 µM (inactive) | 56.2 µM (inactive) | > 100 µM (inactive) | 19.1 µM (inactive) | 59.2 µM (inactive) | 2.91 µM (inactive) | 5.27 µM (inactive) | 35.6 µM (inactive) | 15.5 µM (inactive) | 22 µM (inactive) | 20.4 µM (inactive)
13 | Cc1ccc(S(=O)(=O)Oc2ccc(OS(=O)(=O)c3ccc(C)cc3)c3c2C(=O)c2ccccc2C3=O)cc1 | > 100 µM (inactive) | > 100 µM (inactive) | – | > 100 µM (inactive) | > 100 µM (inactive) | > 100 µM (inactive) | > 100 µM (inactive) | > 100 µM (inactive) | > 100 µM (inactive) | > 100 µM (inactive) | > 100 µM (inactive) | > 100 µM (inactive) | > 100 µM (inactive) | 37.8 µM (inactive) | > 100 µM (inactive) | > 100 µM (inactive) | > 100 µM (inactive) | > 100 µM (inactive) | > 100 µM (inactive) | 16.8 µM (inactive)
14 | c1ccc2c(c1)ccc1nc(-c3ccc4c(c3)OCO4)c3c(c12)CCC3 | > 100 µM (inactive) | > 100 µM (inactive) | 77.4 µM (inactive) | 89.3 µM (inactive) | > 100 µM (inactive) | 60.3 µM (inactive) | – | > 100 µM (inactive) | 74.5 µM (inactive) | > 100 µM (inactive) | – | > 100 µM (inactive) | > 100 µM (inactive) | > 100 µM (inactive) | > 100 µM (inactive) | 52.4 µM (inactive) | > 100 µM (inactive) | > 100 µM (inactive) | > 100 µM (inactive) | > 100 µM (inactive)
